According to patent US11116817B2, “Antimicrobial agents and compositions comprising the same” (THE CURATORS OF THE UNIVERSITY OF MISSOURI, priority 2017, dated 2021):
Positions of bridges follow the written chain, without caps; N, C: chain ends. Non-standard residues stand in square brackets, D forms with d. No end group written: not given here. Abu = CC[C@H](N)C(=O)O

Legend:
JAWSII cells = experiment: Chemotaxis assay (48-well microchemotaxis chamber); format: cell-based, mouse; conditions: for chemotactic index (C.I.): peptide 64 μg/ml
Procedure: (§1) Migration of JAWSII and CCR-2 transfected CHO-K1 cells in response to CAMPs (SEQ ID NOs: 1, 2, 3, and 4) was determined using a 48-well microchemotaxis chamber technique as previously described. Chemotaxis buffer (Minimum Essential Medium containing 0.1% BSA, 100 U/ml penicillin, and 100 μg/ml streptomycin) and bacterial peptide N-Formyl-methionyl-leucyl-phenylalanine (fMLF, Sigma-Aldrich) were included as negative and positive controls, respectively. The results were presented as chemotactic index (C.I.)=number of migrated cells induced by CAMPs (SEQ ID NOs: 1, 2, 3, and 4)/number of migrated cells induced by chemotactic buffer. The assay was repeated five times.
as §1, with “CCR2-CHO-K1” for “CCR-2 transfected CHO-K1”, “the analogues” for “CAMPs (SEQ ID NOs: 1, 2, 3, and 4)”, “For JAWSII cells, chemotaxis” for “Chemotaxis”, “(C.I.). C.I.=number” for “(C.I.)=number”, “the analogues/number” for “CAMPs (SEQ ID NOs: 1, 2, 3, and 4)/number”

[1] = system: CCR-2 transfected CHO-K1 cells; experiment: Chemotaxis assay (48-well microchemotaxis chamber); format: cell-based, hamster
Procedure: as §1
as §1, with “CCR2-CHO-K1” for “CCR-2 transfected CHO-K1”, “the analogues” for “CAMPs (SEQ ID NOs: 1, 2, 3, and 4)”, “For JAWSII cells, chemotaxis” for “Chemotaxis”, “(C.I.). C.I.=number” for “(C.I.)=number”, “the analogues/number” for “CAMPs (SEQ ID NOs: 1, 2, 3, and 4)/number”

[2] = system: E. coli, S. Typhimurium, P. aeruginosa and S. aureus; experiment: Antimicrobial activity assay (colony counting), Example Two, statements over all four bacteria; format: cell-based; conditions: for impact of NaCl on the killing activity: NaCl 5 to 150 mM; for killing activity compared with parent peptide: 2 to 128 μg/ml, 37° C., 2 hours
Procedure: (§2) Escherichia coli (ATCC 25922), Pseudomonas aeruginosa (ATCC 27853), Salmonella enteric serovar Typhimurium (ATCC 14028) and Staphylococcus aureus (ATCC 29213) were used to assess the antimicrobial activity of AvBD analogues (SEQ ID NOs: 5, 6, 7, 8, 9, 10, 11, 12, and 13). All bacterial strains were grown on Luria-Bertani (LB) agar plates or Trypticase Soy Agar with 5% Sheep Blood (TSA, Thermo Fisher Scientific) plates at 37° C. Antimicrobial activity was determined by a colony counting assay. In brief, bacteria were suspended in 100-fold diluted Mueller Hinton broth with 5 mM NaCl (minimal growth medium) to obtain a final bacterial concentration of 2×10^5 CFU/ml. Twenty-five microliters of bacterial suspension and 25 μl of AvBD analogue (SEQ ID NOs: 5, 6, 7, 8, 9, 10, 11, 12, and 13) solution were mixed in the wells of a 96-well polypropylene microtiter plate (Nunc™, Thermo Fisher Scientific). The final peptide concentrations were 2, 4, 8, 16, 32, 64 and 128 μg/ml. The minimal growth medium without AvBD peptide (SEQ ID NO: 5, 6, 7, 8, 9, 10, 11, 12, and 13) was included as a negative control. The bacterial-peptide mixtures were incubated at 37° C. for 2 hours, 10-fold serially diluted and plated on LB agar plates. The numbers of bacterial colonies were enumerated after 16 hours of incubation at 37° C. Antimicrobial activity was expressed as percent of killing using the following formula: (CPUcontrol−CFUtreated)/CFUcontrol×100%. To assess the resistance of AvBD analogues (SEQ ID NOs: 5, 6, 7, 8, 9, 10, 11, 12, and 13) to sodium chloride (NaCl), antimicrobial assays were carried out in the presence of 5 mM, 50 mM, 100 mM or 150 mM NaCl. All assays were performed in triplicate.

[3] = system: P. aeruginosa (ATCC 27853); format: cell-based; conditions: low salt condition (5 mM NaCl)
Procedure: (§3) The minimum inhibitory concentrations (MIC) of AvBDs (SEQ ID NOs: 5, 6, 7, 8, 9, 10, 11, 12, and 13) were determined under low salt and standard conditions according to the guidelines of the Clinical and Laboratory Standards Institute (CLSI). […] An equal volume […] of bacterial suspension was added to each well of the plate. The final bacterial concentration in the wells was 5×10^5 CFU/ml. […] To complement MIC-1s assays, the minimum bactericidal concentrations (MBC) were evaluated by sub-culturing the contents of the first two clear wells obtained in the MIC-1s assay onto LB agar plates. All assays were conducted in triplicate. The lowest peptide concentration inhibiting about, at least, or more than 99% of bacterial growth was defined as MBC-1s. The analogues were regarded as bactericidal when the MBC was determined to be no more than four times the MIC.

CHO-K1 cells = experiment: Cell cytotoxicity assay (MTT); format: cell-based, hamster
Procedure: The Cell Cytotoxicity Assay includes the following procedures. Mouse immature dendritic cell line, JAWSII (ATCC CRL-11904™), was cultured in Alpha minimum essential medium with ribonucleosides, deoxyribonucleosides, 4 mM L-glutamine, 1 mM sodium pyruvate, and 5 ng/ml murine Granulocyte macrophage colony-stimulating factor (GM-CSF) then supplemented with 20% FBS, 100 U/ml penicillin, and 100 μg/ml streptomycin at 37° C. in humidified air with 5% CO2. CCR-2 transfected CHO-K1 cells were cultured in RPMI-1640 supplemented with 10% FBS, 2 mM L-glutamine, 100 units/ml penicillin and streptomycin, and 500 μg/ml G418 at 37° C. in humidified air with 5% CO2. The cytotoxicity of CAMPs (SEQ ID NOs: 1, 2, 3, and 4) to JASWII and CHO-K1 cells was determined using MTT (3-(4,5-dimethylthiazol-2-yl)-2,5-diphenyltetrazolium bromide, Thermo Fisher Scientific) cell proliferation assay. Cells (5×10^3 cells/well) in 96-well microtiter plates were treated with peptides at 64, 128, 256, and 512 μg/ml for 4, 12, 24, and 48 hours at 37° C. After treatment, 20 μl of 12 mM MTT solution was added to each well and the plate was incubated for 4 hours. The medium in each well was replaced with 100 μl of dimethyl sulfoxide (DMSO, Sigma-Aldrich) to dissolve MTT crystals. The plates were read using a spectrophotometer at 540 nm. The viability of treated cells was expressed as the percentage of viability relative to the untreated control. The experiment was performed in triplicate.
Chicken macrophage cell lines MQ-NCSU and HD11 were maintained in RPMI-1640 media supplemented with 10% fetal bovine serum (FBS), 2% chicken serum, 100 U/ml penicillin and 100 μg/ml streptomycin (Sigma-Aldrich) at 37° C. in humidified air with 5% CO2. CHO-K1 cells were cultured in the same media without 2% chicken serum. For CCR2-transfected CHO-K1 cells, medium was supplemented with 500 μg/ml G418 was added (Sigma-Aldrich). Murine immature dendritic cell line JAWSII (ATCC CRL-11904™) was cultured in Alpha minimum essential medium containing 4 mM L-glutamine, 1 mM sodium pyruvate, 5 ng/ml murine Granulocyte macrophage colony-stimulating factor (GM-CSF), 20% FBS, 100 U/ml penicillin and 100 μg/ml streptomycin at 37° C. in humidified air with 5% CO2. The cell cytotoxicity was determined using the MTT (3-(4,5-dimethylthiazol-2-yl)-2,5-diphenyltetrazolium bromide cell proliferation assay according to the manufacturer's instruction (Thermo Fisher Scientific). Briefly, cells (5×10^3 cells/well) were seeded in 96-well tissue culture plates, incubated overnight and treated with the analogues at concentrations of 4, 16, 64 and 256 μg/ml for 4, 12, 24 and 48 hours at 37° C. After treatment, […] 12 mM MTT solution was added to each well. The plate was incubated for 4 hours and read at 540 nm. Viability was expressed as percentage of viable cells relative to the untreated control. The experiments were performed in triplicate.

mouse red blood cells = format: cell-based
Procedure: The Hemolytic Assay includes the following procedures. Briefly, mouse red blood cells (RBCs, Innovative research, Novi, Mich.) were washed three times with phosphate-buffered saline (PBS, pH 7.4), centrifuged at 1000×g for 10 minutes, and re-suspended in PBS to 10% (v/v). The RBCs were treated with CAMPs (SEQ ID NOs: 1, 2, 3, and 4) at various concentrations ranging from 4 to 512 μg/ml (2-fold serial dilutions) at 37° C. for 1 hours. PBS and 0.2% Triton X-100 were used as negative and positive controls, respectively. The supernatant was transferred to a 96-well flat-bottomed polystyrene plate (Thermo Fisher Scientific), and the amount of hemoglobin released into the supernatant was determined by measuring the absorbance with a spectrophotometer at 540 nm. Hemolytic activity was expressed as the percentage of hemolysis and calculated using the following equation: hemolysis (%)=(As−A0)/(A100−A0)×100, where As is the absorbance of the sample, A100 is the absorbance of completely lysed RBCs in 0.2% Triton X-100, and A0 is the absorbance in the complete absence of hemolysis (PBS treatment). The assay was performed in triplicate. Therapeutic index (T.I.) was calculated according to a previously published formula: T.I.=MHC/MICGM. MHC was the minimum hemolytic concentration that caused 5% hemolysis of mouse RBCs. The MICGM was the minimum inhibitory concentration of the peptide concentrations against bacterial growth after the geometric mean was calculated. MICG− was the MICGM for Gram-negative bacteria; MICG+ was the MICGM for Gram-positive bacteria.

S. aureus (ATCC 29213) = format: cell-based; conditions: standard conditions, CLSI guidelines
Procedure: as §3

[4] = system: Salmonella enteric serovar Typhimurium (ATCC 14028); experiment: Antimicrobial activity assay (colony counting), Example Two; format: cell-based, S. Typhimurium; conditions: 2 to 128 μg/ml, 37° C., 2 hours
Procedure: as §2, with “The numbers of bacterial colonies were enumerated after 16 hours of incubation at 37° C.” left out, “To assess the resistance of AvBD analogues (SEQ ID NOs: 5, 6, 7, 8, 9, 10, 11, 12, and 13) to sodium chloride (NaCl), antimicrobial assays were carried out in the presence of 5 mM, 50 mM, 100 mM or 150 mM NaCl. All assays were performed in triplicate.” left out

[5] = 64, 128, 256, and 512 μg/ml for 4 to 48 hours

| Substance | chemotactic activity [1] | impact of NaCl on the killing activity [2] | MBS-Is [3] | T.I. of G+ (therapeutic index, MHC/MICGM) (mouse red blood cells) | T.I. of G− (therapeutic index, MHC/MICGM) (mouse red blood cells) | other results |
| --- | --- | --- | --- | --- | --- | --- |
| GPDS[Abu]NHDRGL[Abu]RVGNCNPGEYLAKY[Abu]FEPVIL[Abu]CKPLSPTPTKT (disulfide 17-35) [AvBD-12A5] | did not appear to exhibit chemotactic activity | some impact on killing activity due to salt | >256 µg/mL |  |  | chemotactic activity (JAWSII cells): did not appear to exhibit chemotactic activity |
| GPRSANHKRGLARVGNANPGKYLAKYSFRPVILSSKPLSPTPTKT [AvBD-12A3] |  |  |  |  |  | effect on cell viability (CHO-K1 cells; 4, 16, 64, 256 μg/ml for 4, 12, 24, and 48 hour): did not appear to have any effect on cell viability |
| Ac-LRRLKPLIRPWLRPLRRWWW-NH2 [CAMP-A] |  |  |  | 6.54±2.01 | 8.72±2.41 | effect on cell viability (CHO-K1 cells; concentration at about 128 μg/ml or greater): somewhat decreased |
| GPRSSNHKRGLSRVGNSNPGKYLAKYAFRPVILAAKPLSPTPTKT [AvBD-12A2] | mild or little chemotactic activity | less adverse impact | 32 µg/mL |  |  | chemotactic index (C.I.) (JAWSII cells): 2.37; killing activity compared with parent peptide [2]: more effective than the parent peptide AvBD-12 |
| GPHSANHVRGLARVGNANPGLYLAKYAFIPVILAAKPLSPTPTKT [AvBD-12A1] | mild or little chemotactic activity | some impact from NaCl | 256 µg/mL |  |  | killing activity compared with parent peptide [2]: more effective than the parent peptide AvBD-12 |
| GPDSCNHDRGLCRVGNCNPGEYLAKYCFEPVILCCKPLSPTPTKT (disulfide 5-34, 12-27, 17-35) [AvBD-12, reference compound] |  |  | >256 µg/mL |  |  | chemotactic index (C.I.) (JAWSII cells): 6.62; MIC (S. aureus (ATCC 29213)): >256^ μg/ml |
| Ac-RRRWRKRRWWW-NH2 [CAMP-B, RRRWRKRRWWW] |  |  |  | > 12.36±4.18 | > 10.90±4.0 | effect on cell viability (CHO-K1 cells; [5]): did not significantly affect cell viability |
| Ac-RKFLRRRGEVAHFSQKSLGLYCWWW-NH2 [CAMP-t1] |  |  |  | >3.27 ± 2.41 | >4.36 ± 1.21 | effect on cell viability (CHO-K1 cells; [5]): did not significantly affect cell viability |
| GPDS[Abu]NHDRGL[Abu]RVGN[Abu]NPGEYLAKY[Abu]FEPVIL[Abu][Abu]KPLSPTPTKT [AvBD-12A6] | did not appear to exhibit chemotactic activity | some impact on killing activity due to salt | >256 µg/mL |  |  | chemotactic activity (JAWSII cells): did not appear to exhibit chemotactic activity |
| GPDS[Abu]NHDRGLCRVGNCNPGEYLAKYCFEPVIL[Abu]CKPLSPTPTKT (disulfide 12-27, 17-35) [AvBD-12A4] |  | some impact on killing activity due to salt | >256 µg/mL |  |  | killing activity compared with AvBD-12 [4]: somewhat reduced |
| Ac-PIHRRIPPRWPRLKRRW-NH2 [CAMP-t2, PIHRRIPPRWPRLKRRW] |  |  |  | >13.45 ± 4.48 | >5.45 ± 2.54 | effect on cell viability (CHO-K1 cells; [5]): did not significantly affect cell viability |
